Test results taken from patent publication US20150283120A1, “ANTIBIOTIC METHODS AND COMPOSITIONS FOR BACTERIA INFECTIONS” (THE UNIVERSITY OF CHICAGO, priority 2012, published 2015).
Values joined by “and” are separate entries in the source; they are usually repeats but may differ in a detail not shown here. Equal values may be shown once. “Also recorded” adds a separate entry of the source. Read-outs that look alike come from different tables or passages of the source.

Columns and labels:
[1] = tested on: vraSR transcription (Pvra::lux); assay type: cell-based, Staphylococcus aureus
Method in brief: (§1)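 Secondary screen: compound at 10 μM plus oxacillin 2 μg/mL, four biological replicates, luminescence read every 15 minutes. RG and RL are OD600 or max LU with compound plus oxacillin over pooled same-plate oxacillin controls; RL <0.8 repressor, >1.2 stimulator, 0.80-1.2 neutral.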

[2] = tested on: MRSA strain USA300-isolate 923; assay: Checkerboard MIC testing of compounds with oxacillin; assay type: cell-based, Staphylococcus aureus; conditions: for oxacillin MIC: strain 923, 24 h
diverse MRSA strains = assay: MIC of oxacillin with a single concentration of compound in multiple MRSA strains; assay type: cell-based, Staphylococcus aureus
Procedure: Testing potentiation of oxacillin by compounds in multiple MRSA strains: In order to be considered a synergistic agent in therapy of MRSA infection, it must be effective as a potentiator in diverse MRSA strains. To determine whether the oxacillin potentiators were effective against MRSA strains besides USA300, a single effective concentration of three compounds that were not known as antibiotics—gossypol, pyrvinium and clomiphene—were tested against multiple MRSA genetic backgrounds. Each compound was tested at a single optimal concentration, determined in the checkerboard assays, in combination with various concentrations of oxacillin. The strains included in this panel were from diverse genetic backgrounds as determined by multilocus sequence type (MLST) and contained a variety of SCCmec types. […] The MIC80 was […] for clomiphene, gossypol, and pyrvinium, respectively.

strain 923 [3] = conditions: strain 923, CLSI guidelines; cited from earlier work
strain 11095 = assay: Checkerboard oxacillin + compound, strain 11095; design: MIC OX / MIC OX (+) / MIC cmpd alone: unit not given beside the values; conditions: for FICi: oxacillin + compound
strain 923 [4] = assay: Oxacillin MIC of strain 923 (assay development)
MRSA strain 8004-01 = assay: Checkerboard oxacillin + compound, strain 8004-01; design: MIC OX / MIC OX (+) / MIC cmpd alone: unit not given beside the values; conditions: strain 8004-1 (ST239)
[5] = tested on: vraSR expression (923 Pvra-lux); assay: Validation of test strain: luminescence as a function of oxacillin concentration; conditions: strain 923 Pvra-lux, luminescence 2 hours after induction
[6] = tested on: test strain (923 pPvra-lux); assay: Primary screen: growth (OD) of test strain with compound, with and without oxacillin; assay type: cell-based, Staphylococcus aureus; conditions: compound 10 μM, with and without oxacillin 2 μg/mL; OD at 24 h; library screened twice
[7] = tested on: vraSR operon (vra promoter, Pvra::lux); assay: Primary screen: Pvra-lux luminescence (vraSR induction); assay type: cell-based, Staphylococcus aureus; conditions: compound 10 μM, oxacillin 2 μg/mL; luminescence at 2 hours; library screened twice
[8] = tested on: MRSA strain USA300 Pvra-lux; assay type: cell-based, Staphylococcus aureus; conditions: compound 10 μM + oxacillin 2 μg/mL
Method in brief: as §1

vraR transcription = assay: Tertiary screen: qRT-PCR of vraR in strain 923; assay type: cell-based, Staphylococcus aureus
VRS1 = assay: microbe, parasite or virus in culture; assay type: cell-based, Staphylococcus aureus; conditions: VRS1
Description: (§2) As shown in the analysis of the checkerboard assays (Table 6), gossypol fully potentiated vancomycin (FIC i<0.5) in hVISA, VISA, VRS2 and VRS1. […] Clomiphene partially potentiated vancomycin in hVISA, VISA, and VRS1 and it fully potentiated in strain VRS2.

VRS2 = assay: microbe, parasite or virus in culture; assay type: cell-based, Staphylococcus aureus; conditions: VRS2
Description: as §2

hVISA 2275 = assay: microbe, parasite or virus in culture; assay type: cell-based, Staphylococcus aureus; conditions: hVISA 2275
Description: as §2

VISA 2283 = assay: microbe, parasite or virus in culture; assay type: cell-based, Staphylococcus aureus; conditions: VISA 2283; with vancomycin; listed as Pyr
Description: as §2

[9] = Staphylococcus aureus, compound alone, read-out: MIC compound
[10] = oxacillin in combination with compound

## Cc1onc(-c2ccccc2)c1C(=O)N[C@@H]1C(=O)N2[C@@H]1SC(C)(C)[C@@H]2C(=O)O [oxacillin]
[1]; grown in the presence of oxacillin 2 μg/mL, all runs of the secondary assay
  average LU of pooled positive controls: 144 (SD+/−16) LU
[1]; oxacillin 2 μg/mL against no oxacillin
  induction of Pvra::lux: 2.7 fold
[2]; Staphylococcus aureus, strain 923, oxacillin alone (Men 0 μM)
  MIC: 32 mg/L
Diverse MRSA strains; Staphylococcus aureus, MRSA, in the absence of compound, range over strains, read-out: MICs of oxacillin for the strains of the panel
  MIC: 2 to 256 mg/L
Diverse MRSA strains; Staphylococcus aureus, MRSA, isolate Q2461 (SCCmec VT, ST 59), Ox alone, read-out: MIC Ox
  MIC: 8 mg/L
Diverse MRSA strains; Staphylococcus aureus, MRSA, panel of strains, absence of compound, read-out: MIC50 of oxacillin
  MIC50: 16 mg/L
Diverse MRSA strains; Staphylococcus aureus, isolate 923 (SCCmec IV, ST 8), Ox alone, read-out: MIC Ox
  MIC: 16 mg/L
Diverse MRSA strains; Staphylococcus aureus, isolate 1176 (SCCmec II, ST 231), Ox alone, read-out: MIC Ox
  MIC: 32 mg/L
Diverse MRSA strains; Staphylococcus aureus, isolate 2169 (SCCmec IV, ST 72), Ox alone, read-out: MIC Ox
  MIC: 16 mg/L
Diverse MRSA strains; Staphylococcus aureus, isolate 8004-01 (SCCmec III, ST 239), Ox alone, read-out: MIC Ox
  MIC: 256 mg/L
Diverse MRSA strains; Staphylococcus aureus, isolate 8010-01 (SCCmec IV, ST 8), Ox alone, read-out: MIC Ox
  MIC: 8 mg/L
Diverse MRSA strains; Staphylococcus aureus, isolate 8227-01 (SCCmec IV, ST 87), Ox alone, read-out: MIC Ox
  MIC: 4 mg/L
Diverse MRSA strains; Staphylococcus aureus, isolate 11095 (SCCmec II, ST 105), Ox alone, read-out: MIC Ox
  MIC: 128 mg/L
Diverse MRSA strains; Staphylococcus aureus, isolate 13113 (SCCmec II, ST 5), Ox alone, read-out: MIC Ox
  MIC: 8 mg/L
Diverse MRSA strains; Staphylococcus aureus, isolate 13354 (SCCmec IV, ST 5), Ox alone, read-out: MIC Ox
  MIC: 8 mg/L
Diverse MRSA strains; Staphylococcus aureus, isolate 14315 (SCCmec IV, ST 1), Ox alone, read-out: MIC Ox
  MIC: 16 mg/L
Diverse MRSA strains; Staphylococcus aureus, panel of 11 MRSA isolates, Ox alone, read-out: MIC 50 of Ox
  MIC50: 16 mg/L
Diverse MRSA strains; Staphylococcus aureus, panel of 11 MRSA isolates, Ox alone, read-out: MIC 80 of Ox
  MIC80: 128 mg/L
Strain 923 [3]
  24-h oxacillin MIC: 16 to 32 mg/L
Strain 11095; oxacillin alone
  MIC OX: 512
Strain 923 [4]; Staphylococcus aureus, 923, read-out: MIC of oxacillin, 923 containing pPvra-lux, 96-well format
  MIC: 5 mg/L
Strain 923 [4]; Staphylococcus aureus, 923, read-out: MIC of oxacillin, strain 923, 96-well format
  MIC: 8 mg/L
MRSA strain 8004-01; oxacillin alone, listed as OX
  MIC OX: 512 and >256
[5]
  minimum concentration sufficient for maximal vraSR expression: 2 µg/mL

## Cc1cc(/C=C/c2ccc3cc(N(C)C)ccc3[n+]2C)c(C)n1-c1ccccc1 [Pyrvinium pamoate, 2-[(E)-2-(2,5-Dimethyl-1-phenylpyrrol-3-yl)ethenyl]-N,N,1-trimethylquinolin-1-ium-6-amine]
[6]
  primary screen category by effect on growth of MRSA strain 923: strong growth inhibitors on their own
[7]
  primary screen category by effect on vraSR (Pvra-lux luminescence): repressed Pvra::lux in both primary screens
[8]
  OD600 category: inhibited (of <0.8 were classified as oxacillin synergists or potentiators)
[8]; ratio of OD600 to oxacillin alone, four runs
  RG avg (relative growth): 0.39
[1]; compound 10 μM + oxacillin 2 μg/mL
  Effect on vraSR transcription: repress (“vraSR repressors” (mean RL of <0.8))
[1]; compound 10 μM + oxacillin 2 μg/mL, ratio of LU to oxacillin alone, four runs
  RL avg (relative luminescence): 0.31
vraR transcription; in the presence of oxacillin
  classification of lux screen result against qRT-PCR (true/false repressor or stimulator): true vraSR expression repressors
vraR transcription; qRT-PCR of vraR, compound 10 μM + oxacillin 2 μg/mL
  Effect on vraSR Transcription: With oxacillin: vraR inhibitors; also recorded: repress
[2]; compound 0.25 μM
  oxacillin MIC: 16 mg/L
[2]; compound 0.5 μM
  oxacillin MIC: 4 mg/L
[2]; compound 1 μM
  oxacillin MIC: 2 mg/L
[2]; strain 923, checkerboard
  change of the MIC of oxacillin with compound concentration: dose dependent decrease
[2]; strain 923, wells with FICi≦0.5 spotted on TSA
  bactericidal effect of oxacillin (MBC, >99.9% killing): increased the bactericidal effect of oxacillin
Diverse MRSA strains; panel of 11 MRSA isolates, clom 3.8 μM, gos 15 μM, pyr 0.5 μM
  MIC 80 of Ox in presence of compound: 32 mg/L
Diverse MRSA strains; panel of strains
  MIC50 of oxacillin in the presence of compound: 1 mg/L
  MIC80 of oxacillin in the presence of compound: 0.032 mg/L
Diverse MRSA strains; panel of strains, with compound against oxacillin alone
  fold decrease in the oxacillin MIC50: 16 fold
VRS1; [9]
  MIC: 2.24 mg/L
VRS1
  fold decrease Van MIC: 64 fold
VRS2; [9]
  MIC: 1.12 mg/L
VRS2; with vancomycin, listed as Pyr
  Synergy category: synergistic (fully potentiated vancomycin (FIC i<0.5))
hVISA 2275; [9]
  MIC: 16 mg/L
hVISA 2275
  FICi V + compound: 0.54
  Van FIC: 0.50
  compound FIC: 0.04
  fold decrease Van MIC: 2 fold
hVISA 2275; compound MIC with the indicated Van concentration
  MIC (in combination) compound+: 0.56
hVISA 2275; with vancomycin, listed as Pyr
  Synergy category: partial (partially potentiated vancomycin (FIC i>0.5 and <1.0))
VISA 2283
  Synergy category: non syn
Strain 11095
  FIC Compound: 0.25
  FIC Ox: .0078
  MIC cmpd alone: 16
  fold decrease of the oxacillin MIC: 128 fold
  FICi: 0.26
Strain 11095; listed as Pyr
  FICi: .26
Strain 11095; [10]
  MIC OX (+): 4
MRSA strain 8004-01
  MIC cmpd alone: >4
MRSA strain 8004-01; compound in combination with oxacillin
  MIC cmpd +: >4 mg/L
MRSA strain 8004-01; oxacillin + compound
  FICi: 7
MRSA strain 8004-01; [10]
  MIC OX (+): >256
